Experimental findings from publication PMC11792831, “Design and synthesis of doublecortin-like kinase 1 inhibitors and their bioactivity evaluation” (Journal of Enzyme Inhibition and Medicinal Chemistry, 2023) are described below.

One data set concerns the target T1, LRRK2 (Homo sapiens, UniProt Q5S007).
T1 construct: purchased Eurofins (Belgium), contract assay service
The data set is described as follows: In vitro LRRK2 kinase activity assay (Eurofins). Type of data set: biochemical. The conditions noted are these: remaining kinase activity at 1 uM compound; 100% = no inhibition, 0% = complete inhibition. The protocol: All compounds were tested for their kinase inhibitory activity at the concentration of 1 μM. […] Compounds with high activity or good selectivity were selected for further IC50 determination (Table 2).
(§1) Eurofins (Belgium) conducted in vitro DCLK1 and LRRK2 kinase activity assays. Compounds were sent as dry powders to Eurofins.

The next data set has as its target T2, DCLK1 (Homo sapiens, UniProt O15075).
T2 construct: purchased Eurofins (Belgium), contract assay service
T2 sequence (O15075 1-740): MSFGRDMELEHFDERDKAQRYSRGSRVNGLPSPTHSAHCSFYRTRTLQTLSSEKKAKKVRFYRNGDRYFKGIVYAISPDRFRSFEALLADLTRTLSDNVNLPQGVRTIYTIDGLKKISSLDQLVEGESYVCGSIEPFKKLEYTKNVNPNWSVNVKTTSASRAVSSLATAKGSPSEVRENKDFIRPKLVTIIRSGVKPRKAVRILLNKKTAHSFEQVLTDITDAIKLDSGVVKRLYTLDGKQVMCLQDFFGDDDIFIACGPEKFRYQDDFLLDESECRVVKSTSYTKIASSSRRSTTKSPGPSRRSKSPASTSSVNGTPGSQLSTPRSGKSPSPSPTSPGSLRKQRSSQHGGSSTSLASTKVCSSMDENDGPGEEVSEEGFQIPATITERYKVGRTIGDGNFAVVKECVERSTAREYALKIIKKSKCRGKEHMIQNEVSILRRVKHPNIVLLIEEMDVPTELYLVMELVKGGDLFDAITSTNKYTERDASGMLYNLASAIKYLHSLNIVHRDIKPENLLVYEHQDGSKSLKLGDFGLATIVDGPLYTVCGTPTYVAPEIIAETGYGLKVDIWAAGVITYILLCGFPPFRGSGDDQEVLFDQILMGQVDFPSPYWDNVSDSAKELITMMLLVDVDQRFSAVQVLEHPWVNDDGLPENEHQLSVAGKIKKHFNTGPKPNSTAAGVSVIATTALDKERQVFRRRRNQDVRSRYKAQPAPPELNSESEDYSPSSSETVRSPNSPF
The data set is described as follows: In vitro DCLK1 kinase activity assay (Eurofins). Type of data set: biochemical. The conditions noted are these: for Selectivity (DCLK1 activity/LRRK2 activity): ratio of remaining activities at 1 uM; for activity at 1 µM / DCLK1 activity (%): remaining kinase activity at 1 uM compound, 100% = no inhibition, 0% = complete inhibition; for activity at 1 µM: read-out: DCLK1 activity (%).
Text: as §1

T1 sequence (Q5S007 whole entry): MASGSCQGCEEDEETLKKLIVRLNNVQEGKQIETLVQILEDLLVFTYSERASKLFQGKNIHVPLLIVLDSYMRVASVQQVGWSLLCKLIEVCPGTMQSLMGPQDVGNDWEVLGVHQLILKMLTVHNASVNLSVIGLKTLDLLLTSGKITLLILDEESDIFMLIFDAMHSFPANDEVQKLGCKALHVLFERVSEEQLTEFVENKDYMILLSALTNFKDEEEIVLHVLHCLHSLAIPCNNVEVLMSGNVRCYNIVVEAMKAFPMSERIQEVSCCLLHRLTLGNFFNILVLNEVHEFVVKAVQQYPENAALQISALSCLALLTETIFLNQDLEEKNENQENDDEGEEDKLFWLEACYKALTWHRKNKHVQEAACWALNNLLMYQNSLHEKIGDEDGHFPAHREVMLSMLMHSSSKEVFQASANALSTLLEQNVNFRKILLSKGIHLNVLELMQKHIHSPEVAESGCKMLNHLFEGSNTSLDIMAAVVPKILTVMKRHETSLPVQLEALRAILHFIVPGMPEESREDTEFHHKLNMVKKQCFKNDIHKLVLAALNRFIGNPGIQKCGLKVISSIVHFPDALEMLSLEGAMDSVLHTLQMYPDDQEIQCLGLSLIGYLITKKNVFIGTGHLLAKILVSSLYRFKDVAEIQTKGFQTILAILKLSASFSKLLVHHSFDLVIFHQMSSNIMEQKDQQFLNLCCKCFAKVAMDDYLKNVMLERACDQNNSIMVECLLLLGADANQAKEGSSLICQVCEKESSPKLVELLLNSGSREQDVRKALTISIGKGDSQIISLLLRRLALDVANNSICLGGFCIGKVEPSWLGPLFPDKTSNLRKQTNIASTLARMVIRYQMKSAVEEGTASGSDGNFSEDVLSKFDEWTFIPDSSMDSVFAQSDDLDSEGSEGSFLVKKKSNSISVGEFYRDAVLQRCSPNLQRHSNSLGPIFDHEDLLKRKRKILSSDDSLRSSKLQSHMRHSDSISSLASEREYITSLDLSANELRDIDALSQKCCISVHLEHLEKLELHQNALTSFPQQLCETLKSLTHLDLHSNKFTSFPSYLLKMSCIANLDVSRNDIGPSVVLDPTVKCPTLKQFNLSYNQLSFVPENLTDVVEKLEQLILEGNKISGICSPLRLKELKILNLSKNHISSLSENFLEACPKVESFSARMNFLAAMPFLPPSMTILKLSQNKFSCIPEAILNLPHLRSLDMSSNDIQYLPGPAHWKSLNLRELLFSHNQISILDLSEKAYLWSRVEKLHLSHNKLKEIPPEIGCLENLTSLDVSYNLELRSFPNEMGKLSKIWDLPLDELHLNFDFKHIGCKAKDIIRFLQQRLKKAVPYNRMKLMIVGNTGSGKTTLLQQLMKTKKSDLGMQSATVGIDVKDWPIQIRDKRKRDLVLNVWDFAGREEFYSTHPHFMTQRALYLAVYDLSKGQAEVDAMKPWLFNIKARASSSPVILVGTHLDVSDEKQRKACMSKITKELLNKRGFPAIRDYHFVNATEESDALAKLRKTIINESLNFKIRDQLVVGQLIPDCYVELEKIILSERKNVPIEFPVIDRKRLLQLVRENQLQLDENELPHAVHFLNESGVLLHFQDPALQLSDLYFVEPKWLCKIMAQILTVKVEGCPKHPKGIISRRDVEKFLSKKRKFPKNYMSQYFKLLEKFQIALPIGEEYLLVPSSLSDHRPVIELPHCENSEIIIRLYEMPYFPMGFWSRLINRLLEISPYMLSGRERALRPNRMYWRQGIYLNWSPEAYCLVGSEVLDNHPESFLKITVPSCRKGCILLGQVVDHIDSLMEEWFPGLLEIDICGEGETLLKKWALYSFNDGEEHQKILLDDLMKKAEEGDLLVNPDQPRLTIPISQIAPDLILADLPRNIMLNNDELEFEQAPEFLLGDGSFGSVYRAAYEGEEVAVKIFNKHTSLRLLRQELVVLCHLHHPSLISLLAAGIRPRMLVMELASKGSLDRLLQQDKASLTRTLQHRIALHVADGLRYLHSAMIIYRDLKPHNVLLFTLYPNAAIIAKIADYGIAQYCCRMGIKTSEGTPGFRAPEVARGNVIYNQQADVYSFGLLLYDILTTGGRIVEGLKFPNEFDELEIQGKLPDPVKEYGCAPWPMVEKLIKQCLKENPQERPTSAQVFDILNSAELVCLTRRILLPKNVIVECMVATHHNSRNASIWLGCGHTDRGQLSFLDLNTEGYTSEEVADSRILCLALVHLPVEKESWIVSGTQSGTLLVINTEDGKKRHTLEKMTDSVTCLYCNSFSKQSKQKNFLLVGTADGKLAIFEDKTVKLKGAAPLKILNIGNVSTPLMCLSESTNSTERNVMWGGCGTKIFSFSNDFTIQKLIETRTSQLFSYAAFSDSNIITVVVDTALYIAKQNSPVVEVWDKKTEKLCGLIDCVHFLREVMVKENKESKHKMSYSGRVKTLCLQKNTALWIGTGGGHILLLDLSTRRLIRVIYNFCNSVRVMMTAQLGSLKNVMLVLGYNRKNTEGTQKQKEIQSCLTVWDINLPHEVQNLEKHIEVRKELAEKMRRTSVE

For the compound `CCOc1cc(N2CCC(O)CC2)ccc1Nc1ncc2c(n1)N(C)c1cc(Cl)ccc1C(=O)N2C` [Compound A3, 9-Chloro-2-((2-ethoxy-4-(4-hydroxypiperidin-1-yl)phenyl)amino)-5,11-dimethyl-5,11-dihydro-6H-benzo[e]pyrimido[5,4-b][1,4]diazepin-6-one], the melting point was 162 to 163 °C. The activity at 1 µM on LRRK2 worked out at 88%. Also, on DCLK1, the “Selectivity (DCLK1 activity/LRRK2 activity)” value was 0.97 and the activity at 1 µM is 85%.

For `CN1C(=O)c2ccccc2N(C)c2nc(Nc3ccc(N4CCC(O)CC4)nc3)ncc21` [Compound C2, 2-((6-(4-Hydroxypiperidin-1-yl)pyridin-3-yl)amino)-5,11-dimethyl-5,11-dihydro-6H-benzo[e]pyrimido[5,4-b][1,4]diazepin-6-one], the melting point was 189 to 190 °C. Moreover, the activity at 1 µM at LRRK2 was found to be 7%. Moreover, at DCLK1, the “Selectivity (DCLK1 activity/LRRK2 activity)” value is listed as 2.14 and the activity at 1 µM is 15%.

As to “2-((2-Ethoxy-4-(4-hydroxypiperidin-1-yl)phenyl)amino)-5-methyl-5,11-dihydro-6H-benzo[e]pyrimido[5,4-b][1,4]diazepin-6-one [Compound B2]”, the “LRRK2 activity (%)” value at LRRK2 is recorded as 72%. Further, on DCLK1, the “Selectivity (DCLK1 activity/LRRK2 activity)” value was 0.82 and the “DCLK1 activity (%)” value came to 59%.

Regarding `CCOc1cc(N2CCC(O)CC2)ccc1Nc1ncc2c(n1)N(C)c1ccc(C)cc1C(=O)N2C` [Compound A8, 2-((2-Ethoxy-4-(4-hydroxypiperidin-1-yl)phenyl)amino)-5,8,11-trimethyl-5,11-dihydro-6H-benzo[e]pyrimido[5,4-b][1,4]diazepin-6-one], the melting point lay within 170 to 171 °C. In addition, at LRRK2, the activity at 1 µM is 93%. For the same compound, at DCLK1, the “Selectivity (DCLK1 activity/LRRK2 activity)” value is 1.10 and the activity at 1 µM was 102%.

With `CCOc1cc(N2CCC(O)CC2)ccc1Nc1ncc2c(n1)N(C)c1c(Cl)cccc1C(=O)N2C` [Compound A1, 10-Chloro-2-((2-ethoxy-4-(4-hydroxypiperidin-1-yl)phenyl)amino)-5,11-dimethyl-5,11-dihydro-6H-benzo[e]pyrimido[5,4-b][1,4]diazepin-6-one], the melting point is 130 to 131 °C. Also, on LRRK2, the activity at 1 µM turned out to be 8%. Besides, on DCLK1, the “Selectivity (DCLK1 activity/LRRK2 activity)” value was determined as 3.13 and the activity at 1 µM was found to be 25%.

Consider `CCOc1cc(N2CCC(O)CC2)ccc1Nc1ncc2c(n1)N(C)c1ccc(Cl)cc1C(=O)N2C` [Compound A5, 8-Chloro-2-((2-ethoxy-4-(4-hydroxypiperidin-1-yl)phenyl)amino)-5,11-dimethyl-5,11-dihydro-6H-benzo[e]pyrimido[5,4-b][1,4]diazepin-6-one], for which the melting point lay within 173 to 174 °C. Besides, the activity at 1 µM at LRRK2 was 89%. Besides, on DCLK1, the “Selectivity (DCLK1 activity/LRRK2 activity)” value was 0.98 and the activity at 1 µM was determined as 87%.

For `CCOc1cc(N2CCC(O)CC2)ccc1Nc1ncc2c(n1)N(C)c1cccc(C)c1C(=O)N2C` [Compound A10, 2-((2-Ethoxy-4-(4-hydroxypiperidin-1-yl)phenyl)amino)-5,7,11-trimethyl-5,11-dihydro-6H-benzo[e]pyrimido[5,4-b][1,4]diazepin-6-one], the melting point was in the range of 184 to 185 °C. In addition, on LRRK2, the activity at 1 µM was 98%. Moreover, at DCLK1, the “Selectivity (DCLK1 activity/LRRK2 activity)” value was found to be 0.98 and the activity at 1 µM worked out at 96%.

As for `COc1cc(N2CCC(F)CC2)ccc1Nc1ncc2c(n1)N(C)c1ccccc1C(=O)N2C` [Compound D13, 2-((4-(4-Fluoropiperidin-1-yl)-2-methoxyphenyl)amino)-5,11-dimethyl-5,11-dihydro-6H-benzo[e]pyrimido[5,4-b][1,4]diazepin-6-one], the melting point lay in the range of 160 to 161 °C. Besides, the activity at 1 µM on LRRK2 is 72%. Also, at DCLK1, the “Selectivity (DCLK1 activity/LRRK2 activity)” value turned out to be 0.82 and the activity at 1 µM was 59%.

For `CN1C(=O)c2ccccc2N(C)c2nc(NC3CCC(N4CCC(O)CC4)CC3)ncc21` (centres unmarked) [Compound C1, 2-((4-(4-Hydroxypiperidin-1-yl)cyclohexyl)amino)-5,11-dimethyl-5,11-dihydro-6H-benzo[e]pyrimido[5,4-b][1,4]diazepin-6-one], the melting point was in the range of 203 to 204 °C. Besides, on LRRK2, the activity at 1 µM is 99%. Besides, on DCLK1, the “Selectivity (DCLK1 activity/LRRK2 activity)” value is on record as 0.57 and the activity at 1 µM is 56%.

`CCOc1cc(N2CCC(C)(O)CC2)ccc1Nc1ncc2c(n1)N(C)c1ccccc1C(=O)N2CC` [Compound D9, 2-((2-Ethoxy-4-(4-hydroxy-4-methylpiperidin-1-yl)phenyl)amino)-5-ethyl-11-methyl-5,11-dihydro-6H-benzo[e]pyrimido[5,4-b][1,4]diazepin-6-one] came in with a melting point of 178 to 179 °C. The activity at 1 µM on LRRK2 was determined as 51%. For the same compound, on DCLK1, the “Selectivity (DCLK1 activity/LRRK2 activity)” value was 0.51 and the activity at 1 µM is 26%.

In the case of `CCOc1cc(N2CCC(O)CC2)ccc1Nc1ncc2c(n1)N(C)c1cc(C)ccc1C(=O)N2C` [Compound A4, 2-((2-Ethoxy-4-(4-hydroxypiperidin-1-yl)phenyl)amino)-5,9,11-trimethyl-5,11-dihydro-6H-benzo[e]pyrimido[5,4-b][1,4]diazepin-6-one], the melting point is 171 to 172 °C. For the same compound, at LRRK2, the activity at 1 µM was found to be 83%. Moreover, at DCLK1, the “Selectivity (DCLK1 activity/LRRK2 activity)” value is recorded as 1.07 and the activity at 1 µM was found to be 89%.

Compound `CCOc1cc(N2CCC(O)CC2)ccc1Nc1ncc2c(n1)N(C)c1ccc(C(F)(F)F)cc1C(=O)N2C` [Compound A7, 2-((2-Ethoxy-4-(4-hydroxypiperidin-1-yl)phenyl)amino)-5,11-dimethyl-8-(trifluoromethyl)-5,11-dihydro-6H-benzo[e]pyrimido[5,4-b][1,4]diazepin-6-one] had a melting point of 119 to 120 °C. Besides, the activity at 1 µM at LRRK2 is 109%. Moreover, on DCLK1, the “Selectivity (DCLK1 activity/LRRK2 activity)” value turned out to be 1.00 and the activity at 1 µM is 109%.

`COc1cc(N2CCC(C)(C)CC2)ccc1Nc1ncc2c(n1)N(C)c1ccccc1C(=O)N2C` [Compound D16, 2-((4-(4,4-Dimethylpiperidin-1-yl)-2-methoxyphenyl)amino)-5,11-dimethyl-5,11-dihydro-6H-benzo[e]pyrimido[5,4-b][1,4]diazepin-6-one] returned a melting point of 181 to 182 °C. For the same compound, the activity at 1 µM on LRRK2 was 33%. At DCLK1, the “Selectivity (DCLK1 activity/LRRK2 activity)” value is given as 0.45 and the activity at 1 µM came to 15%.

In turn, `CCOc1cc(N2CCC(C)(F)CC2)ccc1Nc1ncc2c(n1)N(C)c1ccccc1C(=O)N2CC` [Compound D10, 2-((2-Ethoxy-4-(4-fluoro-4-methylpiperidin-1-yl)phenyl)amino)-5-ethyl-11-methyl-5,11-dihydro-6H-benzo[e]pyrimido[5,4-b][1,4]diazepin-6-one] came in with a melting point of 189 to 190 °C. For the same compound, at LRRK2, the activity at 1 µM turned out to be 81%. Besides, at DCLK1, the “Selectivity (DCLK1 activity/LRRK2 activity)” value is reported as 0.63 and the activity at 1 µM was determined as 51%.

With “2-((2-Ethoxy-4-(4-hydroxypiperidin-1-yl)phenyl)amino)-11-methyl-5,11-dihydro-6H-benzo[e]pyrimido[5,4-b][1,4]diazepin-6-one [Compound B1]”, at LRRK2, the “LRRK2 activity (%)” value was determined as 76%. Moreover, on DCLK1, the “Selectivity (DCLK1 activity/LRRK2 activity)” value turned out to be 1.34 and the “DCLK1 activity (%)” value was found to be 102%.

`CCOc1cc(N2CCC(O)CC2)ccc1Nc1ncc2c(n1)N(C)c1c(C)cccc1C(=O)N2C` [Compound A2, 2-((2-Ethoxy-4-(4-hydroxypiperidin-1-yl)phenyl)amino)-5,10,11-trimethyl-5,11-dihydro-6H-benzo[e]pyrimido[5,4-b][1,4]diazepin-6-one] registered a melting point of 177 to 178 °C. Also, the activity at 1 µM on LRRK2 came to 100%. Besides, at DCLK1, the “Selectivity (DCLK1 activity/LRRK2 activity)” value is 1.03 and the activity at 1 µM amounted to 103%.
